Laboratory results published in patent US11008344B2, “Tricyclic heteroaryl compounds as STING activators” (Incyte Corporation, priority 2018, dated 2021).

Test system: IRF3
Test: IRF3 activation assay in THP-1 Dual Cells (QUANTI-Blue reporter)
Assay type: cell-based
Details: Homo sapiens, THP1-Dual, 24 hours incubation, absorbance at 620-655 nm
Description: THP-1 Dual Cells (Invivogen) were maintained in RPMI1640 medium with addition of 10% FBS, 100 μg/mL zeocin, 10 μg/mL blasticidin. Cells were added in a 96-well flat bottom assay plate at 100,000 per well in 100 μL complete RPMI medium. Test compounds were prepared by serial dilution in complete RPMI medium and 100 μL test compounds were transferred to each corresponding well. The assay plate was incubated at 37° C., 5% CO2 for 24 hours. After the overnight incubation, 20 μL of the culture supernatants were collected, followed by addition of 180 μL of QUANTI-Blue (Invivogen) to assess IRF3 activity. The amount of IRF3 activation was assessed by reading the absorbance at 620-655 nm with a microplate reader 2 hours later. The culture supernatant from the untreated THP-1 cells was used as the negative control. To determine the NF-κB activation, another 20 μL of culture supernatant were transferred to a 96-well white plate, followed by addition of 50 μL of Quanti-Luc™ assay solution (Invivogen). The amount of NF-κB activation induced by the test compounds were determined by the luminescence above the untreated control. EC50 determination was performed by fitting the curve of percent control activity versus the log of the compound concentration using the GraphPad Prism 6.0 software.

EC50 | Structure (SMILES)
≤ 100 nM | CCn1nc(C)cc1-c1ncc2c3cc(C(N)=O)cc(OC)c3n(C/C=C/Cn3c4nc(-c5cc(C)nn5CC)ncc4c4cc(C(N)=O)cc(OC)c43)c2n1 [Example 1, (E)-9,9′-(but-2-ene-1,4-diyl)bis(2-(1-ethyl-3-methyl-1H-pyrazol-5-yl)-8-methoxy-9H-pyrimido[4,5-b]indole-6-carboxamide)]
≤ 100 nM | CCn1nc(C)cc1-c1ncc2c3cc(C(N)=O)cc(OCCCO)c3n(C/C=C/Cn3c4nc(-c5cc(C)nn5CC)ncc4c4cc(C(N)=O)cc(OCCCO)c43)c2n1 [Example 2, (E)-9,9′-(but-2-ene-1,4-diyl)bis(2-(1-ethyl-3-methyl-1H-pyrazol-5-yl)-8-(3-hydroxypropoxy)-9H-pyrimido[4,5-b]indole-6-carboxamide)]
